Entries after “also recorded” stand apart in the source; their conditions may differ. Where two headings read alike, the source gives them in different places.
How the values were obtained:
[1] = test system: HT-29 (Human colon adenocarcinoma grade II); assay: Cytotoxicity test, IC50 determination by MTT test; format: cell-based; settings: 24 hr incubation, 20000 cells/well, 10% serum, read-out: IC50 ± SD (MTT-Test), HT-29
Procedure: (§1) Cytotoxicity Tests (IC50 Determination by MTT test)
(§2) The cytotoxicity of the compounds of the invention A1-A12 was tested in comparison to cis-Pt in four cancer cell-lines: […]
(§3) HT-29 (Human colon adenocarcinoma grade II) by MTT test after an incubation of 24 hours.
(§4) Culture Medium Preparation for Attached Cell-lines: A2780, A2780cisR, CRL-5803, HT-29. • Medium RPMI-1640: 86% • Serum (FCS-fatal calf serum/FBS-fatal bovine serum): 10% • L-Glutamine: 1% • Antibiotics-penicillin-streptomycin(P/S): 1% • Na pyruvate: 1% • HEPES: 1%

[2] = test system: A2780 (ovarian carcinoma cell line); assay: Cytotoxicity test, IC50 determination by MTT test; format: cell-based; settings: 24 hr incubation, 20000 cells/well, 10% serum, read-out: IC50 ± SD (MTT-Test), A2780
Procedure: as §1
(§5) The cytotoxicity of the compounds of the invention A1-A12 was tested in comparison to cis-Pt in four cancer cell-lines:
A2780 (ovarian carcinoma cell line), […]
as §3, §4

[3] = test system: A2780cisR (ovarian carcinoma-cisPt resistance cell line); assay: Cytotoxicity test, IC50 determination by MTT test; format: cell-based; settings: 24 hr incubation, 20000 cells/well, 10% serum, read-out: IC50 ± SD (MTT-Test), A2780cisR
Procedure: as §1, §2
A2780cisR (ovarian carcinoma-cisPt resistance cell line), […]
as §3, §4

[4] = test system: CRL-5803 (non-small cell lung carcinoma cell line); assay: Cytotoxicity test, IC50 determination by MTT test; format: cell-based; settings: 24 hr incubation, 20000 cells/well, 10% serum, read-out: IC50 ± SD (MTT-Test), CRL5803
Procedure: as §1, §2
(§6) CRL-5803 (non-small cell lung carcinoma cell line), and
as §3, §4

[5] = Solubility of compounds in DMSO, ethanol and Solutol-HS15 (20 mM stock solutions); format: physicochemical
Procedure: General Procedure for the Solutol Emulsions Preparation
The amino-alcohol compound of the invention (4 μmol) was mixed with Solutol HS15 (6.0 mg) and heated to 70-80° C. Hot water (1 ml) was added to the mixture and stirred thoroughly. Thickening occurs initially due to hydration and reaches a maximum when half of the water has been added. The viscosity decreases as more water is added.
The solubility of compounds of the invention in ethanol and DMSO was tested in order to study their cytotoxicity.

[6] = test system: SPM formation in A2780cisR cells; assay: Enzymatic assay in cells: formation of fluorescent SPM from Bodipy-12-CER (SMS inhibition), HPLC; format: cell-based; settings: 72 hr incubation in total, related to the control
Procedure: (§7) Enzymatic Assay in Cells (SMS, GCS and CDase Enzyme inhibition Studies) • Plate 10,000 cells in 0.5 ml culture media per well in a 48 well plate. • Incubate (37° C., 5% CO2) overnight to allow the cells to attach to the wells. • Add 10 μl of the fluorescent reagent BodiPy-12-Cer 0.5 μM/well. • After 48 hr incubation with the BodiPy-12-Cer, add 10 μl of the drug of interest dissolved in DMSO/Ethanol/solutol to each well. • Incubate (37° C., 5% CO2) for another 24 hr. • Remove the media. • Wash each well with 200 μl PBS. • Add 2000 trypsin allow sitting for 5 minutes in incubator. • Neutralize Trypsin with culture medium (complete to 1 ml) • Add suspension to 1.5 ml ephendorf. • Centrifuge for 5 minutes at 1200 rpm then remove the media. • Extract the cells with 1 ml of 1:2 CH2Cl2:MeOH by strong vortex stirring followed by centrifuge for 5 minutes at 13400 rpm. Then add the extraction into 2 ml ephendorf. • Extract the cells again with the same procedure with 1 ml of 1:1 CH2Cl2:MeOH. • Remove the solvent. • Add 2000 ethanol into the 2 ml ephendorf, do strong vortex stirring followed by centrifuge for 5 minutes at 13400 rpm. • Take 150 μl of the above sample and inject to the HPLC to quantify the relative metabolite relatively to control samples. • HPLC method conditions are:
(§8) Conditions: RP-8 Column, EX. λ 505 nm, EM. λ 530 nm
(§9) A fluorescent procedure was utilized in order to study the enzymatic inhibition of glucosylceramide synthase (GCS), ceramidases (CDase) and sphingomyelin synthase (SMS) enzymes, which can shed some light on a possible mechanism for ceramide accumulation and apoptosis. The fluorescent procedure was based on a 48-hr incubation of cancer cells with the fluorescent substrate, Bodipy (4,4-difluoro-4-bora-3a,4a-diaza-s-indacene), conjugated ceramide (Bodipy-12-CER) followed by another 24-hr period of incubation in the presence of nontoxic concentrations of compounds of the invention (72 hr incubation in total). After a predetermine incubation period, cells were washed, their lipids were extracted and the various lipids containing fluorescent fatty acid-ceramide, SPM and GC were quantified by HPLC.

[7] = test system: SPM formation in A2780 cells; assay: as above; format: cell-based; settings: 72 hr incubation in total, related to the control
Procedure: as §7, §8, §9

Caspase-3 = assay: Apoptosis determination by Caspase-3 assay (EnzCheck Caspase-3 Assay Kit #2); format: cell-based; settings: 8 hr incubation
Procedure: Apoptosis Determination by Caspase-3 Assay
The assay was done according to the protocol of EnzCheck Caspase-3 Assay Kit #2 (Invitrogen) [Ref: 4].
Caspase-3 was checked using invitrogene protocol. 8 hr incubation was done.

[8] = test system: A2780, A2780cisR, CRL-5803, HT-29; assay: Cytotoxicity (MTT), overall statements on the four cancer cell-lines; format: cell-based; settings: 24 hr, compared to cis-Pt
Procedure: as §1, §5
A2780 (ovarian carcinoma cell line),
A2780cisR (ovarian carcinoma-cisPt resistance cell line),
as §6, §3, §4

[9] = test system: SPM formation in HT-29 cells; assay: Enzymatic assay in cells: formation of fluorescent SPM from Bodipy-12-CER (SMS inhibition), HPLC; format: cell-based, Human; settings: nontoxic concentrations (A2: 4, 6, 8, 12 μM/well; A10: 0.5, 1, 2, 4 μM/well), 72 hr
Procedure: as §7
Conditions: RP-8 Column, EX. λ 505 nm, EM. λ 530 nm […]

[10] = test system: SPM formation in CRL5803 cells; assay: as above; format: cell-based; settings: nontoxic concentrations (A2: 4, 6, 8, 12 μM/well; A10: 0.5, 1, 2, 4 μM/well), 72 hr
Procedure: as §7, §8, §9

[11] = Homo sapiens, HT-29, solutol solutions
[12] = Homo sapiens, A2780, solutol solutions
[13] = Homo sapiens, A2780cisR, solutol solutions
[14] = Solutol-HS15 lipidic emulsion, aqueous with cosolvent or surfactant or cyclodextrin, read-out: Solubility, Solutol-HS15
[15] = organic solvent or mixture, DMSO, 20 mM stock solutions, read-out: Solubility, DMSO
[16] = organic solvent or mixture, ethanol, 20 mM stock solutions, read-out: Solubility, Ethanol
[17] = Homo sapiens, HT-29, ethanol solutions
[18] = Homo sapiens, A2780, ethanol solutions
[19] = Homo sapiens, A2780cisR, ethanol solutions

SMILES	IC50 [1, 11] [µM]	IC50 [2, 12] [µM]	IC50 [3, 13] [µM]	IC50 ([4]; solutol solutions) [µM]	solubility [5, 14] [mM]	solubility [5, 15] [mM]	solubility [5, 16] [mM]	IC50 ([4]; ethanol solutions) [µM]	Solubility, Ethanol ([5]; ethanol, 20 mM stock solutions)	IC50 ([1]; ethanol solutions) [µM]	IC50 ([2]; ethanol solutions) [µM]	IC50 ([3]; ethanol solutions) [µM]	other results
CCCCCCCCCCCCCCCCC(O)CN(CC)CC (stereo not drawn) [Compound A1, 1-DEA-amino-octadecan-2-ol]	24 ± 4	17 ± 4	21 ± 1	40 ± 3	> 4	> 20	> 20						solubility in ethanol and DMSO ([5]; 20 mM stock solutions): good solubility in both solvents
CCCCCCCCCCCCCCCCC(O)CNCCCC (stereo not drawn) [Compound A2, 1-Butyl-amino-octadecan-2-ol]	16 ± 2	11 ± 3	12 ± 3	32 ± 4	> 4		< 20						inhibition of SPM formation ([6]; 6 μM): no significant effect; inhibition at 6 µM ([7]; Homo sapiens, 6 μM): ~10%; solubility in ethanol and DMSO ([5]; 20 mM stock solutions): only soluble in DMSO; Solubility, DMSO ([5]; DMSO, 20 mM stock solutions): ✓*; Caspase-3 increase (Caspase-3; 20 μM): 3 fold
CCCCCCCCCCCCCCCCC(O)CNCCCCCC (stereo not drawn) [Compound A3, 1-Hexyl-amino-octadecan-2-ol]	19 ± 5	11 ± 1	9 ± 1	18 ± 2	> 4	< 20	< 20						
CCCCCCCCCCCCCCCCC(O)CNCCCCCCCC (stereo not drawn) [Compound A4, 1-Octyl-amino-octadecan-2-ol]	15 ± 6	14 ± 3	12 ± 2	29 ± 4	> 4	< 20	< 20						
CCCCCCCCCCCCCCCCC(O)CNCCCCCCCCCCCC (stereo not drawn) [Compound A5, 1-Dodecyl-amino-octadecan-2-ol]	> 100	> 100	> 100	> 100	> 4	< 20	< 20						
CCCCCCCCCC(O)CNCCCCCC (stereo not drawn) [Compound A8, 1-Hexyl-amino-undecan-2-ol]						> 20	> 20	33 ± 6					IC50 [1, 17]: 33 ± 4 µM; IC50 [2, 18]: 16 ± 1 µM; IC50 [3, 19]: 22 ± 3 µM
CCCCCCCCCC(O)CNCCCCCCCC (stereo not drawn) [Compound A9, 1-Octyl-amino-undecan-2-ol]						< 20		14 ± 1	✓*				IC50 [1, 17]: 11 ± 2 µM; IC50 [2, 18]: 7 ± 1 µM; IC50 [3, 19]: 10 ± 1 µM
CCCCCCCCCCCCNCC(O)CCCCCCCCC (stereo not drawn) [Compound A10, 1-Dodecyl-amino-undecan-2-ol]								10 ± 2	✓*	8 ± 2	4 ± 1	4 ± 1	anticancer activity (in words) [8]: most active; also recorded: highest activity; SPM formation related to the control (in words) [9]: reduction in SPM formation; effect on SPM formation ([6]; 0.5 μM): ~8%; SPM formation related to the control (in words) [10]: reduction in SPM formation; effect on SPM formation ([7]; 0.5 μM): about 22%; Caspase-3 increase (Caspase-3; 10 μM): 7 fold
CCCCCCCCCCCCCCNCC(O)CCCCCCCCC (stereo not drawn) [Compound A11, 1-tetradecyl-amino-undecan-2-ol]								33 ± 6	✓*	30 ± 7	9 ± 2	9 ± 3	
CCCCCCCCCCCCCCCCNCC(O)CCCCCCCCC (stereo not drawn) [Compound A12, 1-hexadecyl-amino-undecan-2-ol]								> 100	✓*	> 100	> 100	> 100	
N.N.[Cl][Pt][Cl] [cis-Pt, reference compound]				> 100				> 100		> 100	30 ± 1	> 100	IC50 ([1]; solutol solutions): > 100 µM; IC50 ([2]; solutol solutions): 30 ± 1 µM; IC50 ([3]; solutol solutions): > 100 µM

— patent US20150183721A1, “AMINO-ALCOHOL ANALOGUES AND USES THEREOF” (YISSUM RESEARCH DEVELOPMENT COMPANY OF THE HEBREW …, priority 2009, published 2015)
